Source: publication PMC5419029 (Cancer research, 2017)

What was measured:
[1] = target: T1, OCTN1 (Homo sapiens, UniProt Q9H015); test: uptake; assay type: cell-based
T1 sequence (Q9H015 1-551): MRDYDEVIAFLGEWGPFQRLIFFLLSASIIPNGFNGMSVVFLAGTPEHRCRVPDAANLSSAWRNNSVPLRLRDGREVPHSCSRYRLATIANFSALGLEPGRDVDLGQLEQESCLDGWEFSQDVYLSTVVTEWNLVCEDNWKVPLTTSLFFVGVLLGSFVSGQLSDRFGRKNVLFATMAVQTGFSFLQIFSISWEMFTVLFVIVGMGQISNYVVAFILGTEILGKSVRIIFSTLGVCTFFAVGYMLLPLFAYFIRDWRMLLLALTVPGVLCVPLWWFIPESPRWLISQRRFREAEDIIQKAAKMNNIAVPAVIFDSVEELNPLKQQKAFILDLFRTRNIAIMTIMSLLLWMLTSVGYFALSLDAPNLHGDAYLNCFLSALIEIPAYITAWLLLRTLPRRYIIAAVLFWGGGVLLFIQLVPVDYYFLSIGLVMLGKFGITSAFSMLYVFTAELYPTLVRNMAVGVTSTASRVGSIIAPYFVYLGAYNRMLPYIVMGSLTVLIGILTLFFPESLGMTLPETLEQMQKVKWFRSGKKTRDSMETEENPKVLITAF

[2] = target: T1, OCTN1; test: uptake in OCTN1-transfected HEK293 cells; assay type: cell-based
[3] = target: T1, OCTN1

| SMILES | uptake (1 μM, 5 min) in OCTN1-transfected HEK293 cells [1] | further results |
| --- | --- | --- |
| Nc1nc(Cl)nc2c1ncn2[C@@H]1O[C@H](CO)[C@@H](O)[C@@H]1F [clofarabine] | adenosine analogs (eg, clofarabine and fludarabine), and guanosine analogs (eg, ribavirin) | – |
| C[N+](C)(C)[C@@H](Cc1c[nH]c(=S)[nH]1)C(=O)[O-] [ergothioneine] | – | uptake in OCTN1-transfected HEK293 cells (transport efficiency) [2]: 62 ± 8 µL/min/mg |
| Nc1nc(F)nc2c1ncn2[C@@H]1O[C@H](CO)[C@@H](O)[C@@H]1O [fludarabine] | adenosine analogs (eg, clofarabine and fludarabine), and guanosine analogs (eg, ribavirin) | – |
| NC(=O)c1ncn([C@@H]2O[C@H](CO)[C@@H](O)[C@H]2O)n1 [ribavirin] | adenosine analogs (eg, clofarabine and fludarabine), and guanosine analogs (eg, ribavirin) | – |
| CC[N+](CC)(CC)CC [tetraethylammonium] | – | carbon 14-labeled TEA uptake in OCTN1-transfected HEK293 cells (transport effici) [3]: 1.1 ± 0.12 µL/min/mg |
